{"source": "patent US9469650B2", "about": "“Melampomagnolide B derivatives” (BOARD OF TRUSTEES OF THE UNIVERSITY OF ARKANSAS, priority 2013, dated 2016)", "key": {"[1]": {"tested_on": "MDA-MB-435", "test": "panel of 60 human tumor cell lines, growth inhibition (Melanoma)", "conditions": "Homo sapiens"}, "[2]": {"tested_on": "A498", "test": "panel of 60 human tumor cell lines, growth inhibition (Renal Cancer)", "conditions": "Homo sapiens"}, "[3]": {"tested_on": "COLO 205", "test": "panel of 60 human tumor cell lines, growth inhibition (Colon Cancer)", "conditions": "Homo sapiens"}, "[4]": {"tested_on": "HCT-15", "test": "panel of 60 human tumor cell lines, growth inhibition (Colon Cancer)", "conditions": "Homo sapiens"}, "[5]": {"tested_on": "NCI-H322M", "test": "panel of 60 human tumor cell lines, growth inhibition (Non-Small Cell Lung Cancer)", "conditions": "Homo sapiens"}, "[6]": {"tested_on": "RXF 393", "test": "panel of 60 human tumor cell lines, growth inhibition (Renal Cancer)", "conditions": "Homo sapiens"}, "[7]": {"tested_on": "HOP-92", "test": "panel of 60 human tumor cell lines, growth inhibition (Non-Small Cell Lung Cancer)", "conditions": "Homo sapiens"}, "[8]": {"tested_on": "OVCAR-8", "test": "panel of 60 human tumor cell lines, growth inhibition (Ovarian Cancer)", "conditions": "Homo sapiens"}, "[9]": {"tested_on": "SR", "test": "panel of 60 human tumor cell lines, growth inhibition (Leukemia)", "conditions": "Homo sapiens"}, "[10]": {"tested_on": "UACC-62", "test": "panel of 60 human tumor cell lines, growth inhibition (Melanoma)", "conditions": "Homo sapiens"}, "[11]": {"tested_on": "SF-539", "test": "panel of 60 human tumor cell lines, growth inhibition (CNS Cancer)", "conditions": "Homo sapiens"}, "[12]": {"tested_on": "SF-268", "test": "panel of 60 human tumor cell lines, growth inhibition (CNS Cancer)", "conditions": "Homo sapiens"}, "[13]": {"tested_on": "MDA-MB-468", "test": "panel of 60 human tumor cell lines, growth inhibition (Breast Cancer)", "conditions": "Homo sapiens"}, "[14]": {"tested_on": "OVCAR-5", "test": "panel of 60 human tumor cell lines, growth inhibition (Ovarian Cancer)"}, "[15]": {"tested_on": "KM12", "test": "panel of 60 human tumor cell lines, growth inhibition (Colon Cancer)"}, "[16]": {"tested_on": "CCRF-CEM", "test": "panel of 60 human tumor cell lines, growth inhibition (Leukemia)", "conditions": "Homo sapiens"}, "[17]": {"tested_on": "K-562", "test": "panel of 60 human tumor cell lines, growth inhibition (Leukemia)", "conditions": "for Percent Growth: K-562"}}}
{"smiles": "C=C1C(=O)O[C@H]2[C@H]1CC/C(COC(=O)NCCN1CCCC1)=C\\CC[C@@]1(C)O[C@@H]21", "note": "[JVM 59, ((1aR,7aS,10aS,10bS,E)-1a-methyl-8-methylene-9-oxo-1a,2,3,6,7,7a,8,9,10a,10b-decahydrooxireno[2′,3′:9,10]cyclodeca[1,2-b]furan-5-yl)methyl-(2-(pyrrolidin-1-yl)ethyl)carbamate]", "values": [{"measurement": "GI50", "setting": "[1]; MDA-MB-435", "result": 6.56, "unit": "µM"}, {"measurement": "CC50", "setting": "[1]; MDA-MB-435, read-out: LC50", "result": 53.4, "unit": "µM"}, {"measurement": "IC (TGI)", "setting": "[1]; MDA-MB-435, read-out: TGI", "result": 21.1, "unit": "µM"}, {"measurement": "GI50", "setting": "[2]; A498", "result": 20.4, "unit": "µM"}, {"measurement": "CC50", "setting": "[2]; A498, read-out: LC50", "result": 95.2, "unit": "µM"}, {"measurement": "IC (TGI)", "setting": "[2]; A498, read-out: TGI", "result": 44.1, "unit": "µM"}, {"measurement": "GI50", "setting": "[3]; COLO 205", "result": 4.78, "unit": "µM"}, {"measurement": "CC50", "setting": "[3]; COLO 205, read-out: LC50", "result": 45, "unit": "µM"}, {"measurement": "IC (TGI)", "setting": "[3]; COLO 205, read-out: TGI", "result": 16.8, "unit": "µM"}, {"measurement": "GI50", "setting": "[4]; HCT-15", "result": 13.5, "unit": "µM"}, {"measurement": "CC50", "setting": "[4]; HCT-15, read-out: LC50", "result": 91.2, "unit": "µM"}, {"measurement": "IC (TGI)", "setting": "[4]; HCT-15, read-out: TGI", "result": 35.1, "unit": "µM"}, {"measurement": "GI50", "setting": "[5]", "result": 73.9, "unit": "µM"}, {"measurement": "CC50", "setting": "[5]; read-out: LC50", "result": "> 100", "unit": "µM"}, {"measurement": "IC (TGI)", "setting": "[5]; read-out: TGI", "result": "> 100", "unit": "µM"}, {"measurement": "GI50", "setting": "[6]; RXF 393, RXF 393, five dose", "result": 4.08, "unit": "µM"}, {"measurement": "GI50", "setting": "[6]; RXF 393, RXF 393, 5-dose assay", "result": 4.08, "unit": "µM"}, {"measurement": "CC50", "setting": "[6]; RXF 393, read-out: LC50", "result": 47.9, "unit": "µM"}, {"measurement": "IC (TGI)", "setting": "[6]; RXF 393, read-out: TGI", "result": 16.8, "unit": "µM"}, {"measurement": "GI50", "setting": "[7]; HOP-92, HOP-92, five dose", "result": 2.25, "unit": "µM"}, {"measurement": "GI50", "setting": "[7]; HOP-92, HOP-92, 5-dose assay", "result": 2.25, "unit": "µM"}, {"measurement": "CC50", "setting": "[7]; HOP-92, read-out: LC50", "result": 32.3, "unit": "µM"}, {"measurement": "IC (TGI)", "setting": "[7]; HOP-92, read-out: TGI", "result": 7.86, "unit": "µM"}, {"measurement": "GI50", "setting": "[8]; OVCAR-8", "result": 13.4, "unit": "µM"}, {"measurement": "CC50", "setting": "[8]; OVCAR-8, read-out: LC50", "result": 72.2, "unit": "µM"}, {"measurement": "IC (TGI)", "setting": "[8]; OVCAR-8, read-out: TGI", "result": 31.1, "unit": "µM"}, {"measurement": "GI50", "setting": "[9]", "result": 10.2, "unit": "µM"}, {"measurement": "CC50", "setting": "[9]; read-out: LC50", "result": "> 100", "unit": "µM"}, {"measurement": "IC (TGI)", "setting": "[9]; read-out: TGI", "result": 39.3, "unit": "µM"}, {"measurement": "GI50", "setting": "[10]; UACC-62", "result": 13.3, "unit": "µM"}, {"measurement": "CC50", "setting": "[10]; UACC-62, read-out: LC50", "result": 55.8, "unit": "µM"}, {"measurement": "IC (TGI)", "setting": "[10]; UACC-62, read-out: TGI", "result": 27.3, "unit": "µM"}, {"measurement": "GI50", "setting": "[11]; SF-539", "result": 15, "unit": "µM"}, {"measurement": "CC50", "setting": "[11]; SF-539, read-out: LC50", "result": 54.1, "unit": "µM"}, {"measurement": "IC (TGI)", "setting": "[11]; SF-539, read-out: TGI", "result": 28.5, "unit": "µM"}, {"measurement": "GI50", "setting": "[12]; SF-268", "result": 14.7, "unit": "µM"}, {"measurement": "CC50", "setting": "[12]; SF-268, read-out: LC50", "result": 60.8, "unit": "µM"}, {"measurement": "IC (TGI)", "setting": "[12]; SF-268, read-out: TGI", "result": 30, "unit": "µM"}, {"measurement": "GI50", "setting": "[13]; MDA-MB-468", "result": 2.3, "unit": "µM"}, {"measurement": "CC50", "setting": "[13]; MDA-MB-468, read-out: LC50", "result": 42.9, "unit": "µM"}, {"measurement": "IC (TGI)", "setting": "[13]; MDA-MB-468, read-out: TGI", "result": 9.06, "unit": "µM"}, {"measurement": "GI50", "setting": "[14]; Homo sapiens, OVCAR-5", "result": 13.5, "unit": "µM"}, {"measurement": "CC50", "setting": "[14]; Homo sapiens, OVCAR-5, read-out: LC50", "result": 59.3, "unit": "µM"}, {"measurement": "IC (TGI)", "setting": "[14]; Homo sapiens, OVCAR-5, read-out: TGI", "result": 28.3, "unit": "µM"}, {"measurement": "Percent Growth", "setting": "[14]; OVCAR-5, Log10 Concentration −7.0", "result": 9, "unit": "B"}, {"measurement": "GI50", "setting": "[15]; Homo sapiens, KM12", "result": 23.9, "unit": "µM"}, {"measurement": "CC50", "setting": "[15]; Homo sapiens, KM12, read-out: LC50", "result": "> 100", "unit": "µM"}, {"measurement": "TGI", "setting": "[15]; KM12, five dose", "result": "7.00E−5"}, {"measurement": "Percent Growth", "setting": "[15]; KM12, Log10 Concentration −4.0", "result": "−17", "unit": "%"}, {"measurement": "Percent Growth", "setting": "[15]; KM12, Log10 Concentration −5.0", "result": 90, "unit": "%"}, {"measurement": "Percent Growth", "setting": "[15]; KM12, Log10 Concentration −6.0", "result": 96, "unit": "%"}, {"measurement": "Percent Growth", "setting": "[15]; KM12, Log10 Concentration −7.0", "result": 95, "unit": "%"}, {"measurement": "Percent Growth", "setting": "[15]; KM12, Log10 Concentration −8.0", "result": 96, "unit": "%"}, {"measurement": "GI50", "setting": "[16]; 5-dose assay", "result": 2.49, "unit": "µM"}, {"measurement": "GI50", "setting": "[16]; five dose", "result": 2.49, "unit": "µM"}, {"measurement": "CC50", "setting": "[16]; read-out: LC50", "result": 64.3, "unit": "µM"}, {"measurement": "IC (TGI)", "setting": "[16]; read-out: TGI", "result": 9.12, "unit": "µM"}, {"measurement": "GI50", "setting": "[17]; Homo sapiens, K562", "result": 3.26, "unit": "µM"}, {"measurement": "CC50", "setting": "[17]; Homo sapiens, K562, read-out: LC50", "result": "> 100", "unit": "µM"}, {"measurement": "TGI", "setting": "[17]; K-562, five dose", "result": "1.86E−5"}, {"measurement": "Percent Growth", "setting": "[17]; Log10 Concentration −4.0", "result": "−36", "unit": "%"}, {"measurement": "Percent Growth", "setting": "[17]; Log10 Concentration −5.0", "result": 13, "unit": "%"}, {"measurement": "Percent Growth", "setting": "[17]; Log10 Concentration −6.0", "result": 89, "unit": "%"}, {"measurement": "Percent Growth", "setting": "[17]; Log10 Concentration −7.0", "result": 79, "unit": "%"}, {"measurement": "Percent Growth", "setting": "[17]; Log10 Concentration −8.0", "result": 87, "unit": "%"}]}
